Source: patent US10349656B2, “Difluoromethyl-nicotinic-indanyl carboxamides” (BAYER CROPSCIENCE AKTIENGESELLSCHAFT, priority 2014, dated 2019)

Tests used:
[1] = Log P by HPLC on reversed phase columns (EEC directive 79/831 Annex V.A8), acidic range; format: physicochemical; settings: for chromatographic logP: LC-UV, acidic range, 0.1% formic acid in water and acetonitrile (gradient 10% to 95% acetonitrile)
Experimental: Measurement of Log P values was performed according to EEC directive 79/831 Annex V.A8 by HPLC (High Performance Liquid Chromatography) on reversed phase columns with the following method: ^[a] Log P value is determined by measurement of LC-UV, in an acidic range, with 0.1% formic acid in water and acetonitrile as eluent (linear gradient from 10% acetonitrile to 95% acetonitrile).
(§1) Calibration was done with straight-chain alkan2-ones (with 3 to 16 carbon atoms) with known Log P values (measurement of Log P values using retention times with linear interpolation between successive alka-nones). Lambda-max-values were determined using UV-spectra from 200 nm to 400 nm and the peak values of the chromatographic signals.
as §1, with “alkanones).” for “alka-nones).”

Pyrenophora teres = assay: In vivo preventive test on Pyrenophora teres (net blotch on barley); settings: barley plants; for Efficacy: comparison table
Experimental: (§2) The active ingredients are made soluble and homogenized in a mixture of Dimethyl sulfoxide/Acetone//Tween® 80 and then diluted in water to the desired concentration.
The young plants of barley are treated by spraying the active ingredient prepared as described above. Control plants are treated only with an aqueous solution of Acetone/Dimethyl sulfoxide/Tween® 80.
After 24 hours, the plants are contaminated by spraying the leaves with an aqueous suspension of Pyreoophora teres spores. The contaminated barley plants are incubated for 48 hours at 20° C. and at 100% relative humidity and then for 12 days at 20° C. and at 70-80% relative humidity.
The test is evaluated 14 days after the inoculation. 0% means an efficacy which corresponds to that of the control plants while an efficacy of 100% means that no disease is observed.

Septoria tritici = assay: In vivo preventive test on Septoria tritici (leaf spot on wheat), DMSO/acetone/Tween 80; settings: wheat plants; for Efficacy: dose 10 ppm, comparison table; for protection (in words): dose of 10 ppm of active ingredient
Experimental: as §2
The young plants of wheat are treated by spraying the active ingredient prepared as described above. Control plants are treated only with an aqueous solution of Acetone/Dimethyl sulfoxide/Tween® 80.
After 24 hours, the plants are contaminated by spraying the leaves with an aqueous suspension of Septoria tritici spores. The contaminated wheat plants are incubated for 72 hours at 18° C. and at 100% relative humidity and then for 21 days at 20° C. and at 90% relative humidity.
The test is evaluated 24 days after the inoculation. 0% means an efficacy which corresponds to that of the control plants while an efficacy of 100% means that no disease is observed.

Sphaerotheca fuliginea = assay: In vivo preventive test on Sphaerotheca fuliginea (powdery mildew on cucurbits); settings: gherkin plants; for Efficacy: dose 10 ppm, comparison table; for protection (in words): dose of 10 ppm of active ingredient
Experimental: as §2
(§3) The young plants of gherkin are treated by spraying the active ingredient prepared as described above. Control plants are treated only with an aqueous solution of Acetone/Dimethyl sulfoxide/Tween® 80.
After 24 hours, the plants are contaminated by spraying the leaves with an aqueous suspension of Sphaerotheca fuliginea spores. The contaminated gherkin plants are incubated for 72 hours at 18° C. and at 100% relative humidity and then for 12 days at 20° C. and at 70-80% relative humidity.
The test is evaluated 15 days after the inoculation. 0% means an efficacy which corresponds to that of the control plants while an efficacy of 100% means that no disease is observed.

Botrytis cinerea = assay: In vivo preventive test on Botrytis cinerea (grey mould); settings: gherkin plants
Experimental: as §2, §3
After 24 hours, the plants are contaminated by spraying the leaves with an aqueous suspension of Botrytis cinerea spores. The contaminated gherkin plants are incubated for 4 to 5 days at 17° C. and at 90% relative humidity.
The test is evaluated 4 to 5 days after the inoculation. 0% means an efficacy which corresponds to that of the control plants while an efficacy of 100% means that no disease is observed.

[2] = dose of 10 ppm of active ingredient
[3] = dose of 100 ppm of active ingredient

In the case of CCCC1CC(C)(C)c2cccc(NC(=O)c3cccnc3C(F)F)c21 (single isomer, unassigned) [Example 7], the “Log P[a]” value [1] is reported as 3.96^[a].

With CCC1CC(C)(C)c2cccc(NC(=O)c3cccnc3C(F)F)c21 (single isomer, unassigned) [Example 3] the “Log P[a]” value [1] was 3.62^[a].

In the case of CC(C)CC1CC(C)(C)c2cccc(NC(=O)c3cccnc3C(F)F)c21 (single isomer, unassigned) [Example 12], the “Log P[a]” value [1] is reported as 4.27^[a].

With CC(C)C1CC(C)(C)c2cccc(N)c21 (racemic) [Example III-01] the “Log P[a]” value [1] was 3.37^[a].

In the case of CC(C)CC1CC(C)(C)c2cccc(NC(=O)c3cccnc3C(F)F)c21 (single isomer, unassigned) [Example 11], the “Log P[a]” value [1] is reported as 4.27^[a].

In the case of CCCC1CC(C)(C)c2cccc(NC(=O)c3ccc(Cl)nc3C(F)F)c21 (racemic) [Example 8], the “Log P[a]” value [1] is reported as 4.65^[a].

CCC1CC(C)(C)c2cccc(N)c21 (stereo not drawn) [Example III-02, 3-ethyl-1,1-dimethylindan-4-amine] showed a chromatographic logP [1] of 2.86.

With CCCC1CC(C)(C)c2cccc(NC(=O)c3cccnc3C(F)F)c21 (racemic) [Example 5] the “Log P[a]” value [1] was 3.96^[a].

In the case of CC(C)CC1CC(C)(C)c2cccc(N)c21 (racemic) [Example III-04], the “Log P[a]” value [1] is reported as 4.18^[a].

In the case of CCC1CC(C)(C)c2cccc(NC(=O)c3c(F)ccnc3C(F)F)c21 (racemic) [Example 14], the “Log P[a]” value [1] is reported as 3.87^[a].

For CCCC1CC(C)(C)c2cccc(N)c21 (racemic) [Example III-03], the “Log P[a]” value [1] was 3.60^[a].

For CC(C)C1CC(C)(C)c2cccc(NC(=O)c3cccnc3C(F)F)c21 (racemic) [Example 1], the “Log P[a]” value [1] was 3.87^[a].

For CCC1CC(C)(C)c2cccc(NC(=O)c3cccnc3Cl)c21 (stereo not drawn) [2-chloro-N-(3-ethyl-1,1-dimethyl-2,3-dihydro-1H-inden-4-yl)nicotinamide, reference compound], the Efficacy (Pyrenophora teres; dose 10 ppm) was 0%, the Efficacy (Pyrenophora teres; dose 100 ppm) was 71% and the “protection (in words)” value (Pyrenophora teres; [2]) was “no protection at all”. For the same compound, the “protection (in words)” value (Pyrenophora teres; [3]) was “moderate protection”, the Efficacy (Septoria tritici) was 50% and the “protection (in words)” value (Septoria tritici) was “moderate protection”. The Efficacy (Sphaerotheca fuliginea) was 44% and the “protection (in words)” value (Sphaerotheca fuliginea) was “weak protection”.

In the case of CC(C)CC1CC(C)(C)c2cccc(NC(=O)c3cccnc3C(F)F)c21 (racemic) [Example 10], the “Log P[a]” value [1] is reported as 4.27^[a].

In the case of CCC1CC(C)(C)c2cccc(NC(=O)c3cccnc3C(F)F)c21 (single isomer, unassigned) [Example 4], the “Log P[a]” value [1] is reported as 3.62^[a].

With CC(C)CC1CC(C)(C)c2cccc(NC(=O)c3c(F)ccnc3C(F)F)c21 (racemic) [Example 13] the “Log P[a]” value [1] was 4.54^[a].

With CCCC1CC(C)(C)c2cccc(NC(=O)c3c(F)ccnc3C(F)F)c21 (racemic) [Example 15] the “Log P[a]” value [1] was 4.21^[a].

With CCCC1CC(C)(C)c2cccc(NC(=O)c3cccnc3C(F)F)c21 (single isomer, unassigned) [Example 6] the “Log P[a]” value [1] was 3.96^[a].

For CCC1CC(C)(C)c2cccc(NC(=O)c3cccnc3C(F)F)c21 (stereo not drawn) [Example 2, 2-(difluoromethyl)-N-(3-ethyl-1,1-dimethyl-2,3-dihydro-1H-inden-4-yl)nicotinamide], the chromatographic logP [1] was 3.62, the Efficacy (Botrytis cinerea; dose 100 ppm, comparison table) was 93% and the “protection (in words)” value (Botrytis cinerea; [3]) was “very good protection”. The Efficacy (Pyrenophora teres; dose 10 ppm) was 64%, the Efficacy (Pyrenophora teres; dose 100 ppm) was 93% and the “protection (in words)” value (Pyrenophora teres; [2]) was “moderate protection”. For the same compound, the “protection (in words)” value (Pyrenophora teres; [3]) was “very good protection”, the Efficacy (Septoria tritici) was 97% and the “protection (in words)” value (Septoria tritici) was “very good protection”. The Efficacy (Sphaerotheca fuliginea) was 100% and the “protection (in words)” value (Sphaerotheca fuliginea) was “total protection”.
